Results taken from patent US20040225128A1 (priority 2001, published 2004).
Structures can show the parent of a compound that is named as a salt. Where two headings read alike, the source gives them in different places.

Key:
Hygroscopicity = assay type: physicochemical
[1] = as described in European Patent 0223403B; cited from earlier work
[2] = as described in European Patent 0223403B; cited from earlier work; remark: listed apart in the source

| Structure (SMILES) | Hygroscopicity (in words) (Hygroscopicity) | Hygroscopicity (in words) [1] | Stability (in words) [2] |
| --- | --- | --- | --- |
| Fc1ccc([C@@H]2CCNC[C@H]2COc2ccc3c(c2)OCO3)cc1 [Example 3, paroxetine isethionate] | practically no adverse hygroscopicity characteristics | – | – |
| Fc1ccc([C@@H]2CCNC[C@H]2COc2ccc3c(c2)OCO3)cc1 [Example 9, paroxetine hydrochloride hemi hydrate] | – | non-hygroscopic | stable |
